Values after ≈ are worked out from the molar mass of the structure shown. Where two headings read alike, the source gives them in different places.
How the values were obtained:
NCI-H460 = experiment: Human cancer cell line inhibitory activity, Lung-NSC NCI-H460; format: cell-based; settings: for GI50: Homo sapiens, NCI-H460, read-out: GI50 Lung-NSC NCI-H460
SF268 = experiment: Human cancer cell line inhibitory activity, CNS SF268; format: cell-based; settings: for GI50: Homo sapiens, SF-268, read-out: GI50 CNS SF268
DU-145 = experiment: Human cancer cell line inhibitory activity, Prostate DU-145; format: cell-based; settings: for GI50: Homo sapiens, DU-145, read-out: GI50 Prostate DU-145
MCF-7 = experiment: Human cancer cell line inhibitory activity, Breast MCF-7; format: cell-based; settings: for GI50: Homo sapiens, MCF7, read-out: GI50 Breast MCF-7
BXPC-3 = experiment: Human cancer cell line inhibitory activity, Pancreas-a BXPC-3; format: cell-based; settings: for GI50: Homo sapiens, BXPC-3, read-out: GI50 Pancreas-a BXPC-3
KM20L2 = experiment: Human cancer cell line inhibitory activity, Colon KM20L2; format: cell-based; settings: for GI50: Homo sapiens, KM-20L2, read-out: GI50 Colon KM20L2
[1] = test system: Encephalitozoon intestinalis; settings: in vitro; cited from earlier work
[2] = freeze dried solid
Description: Sodium pancratistatin 3,4-cyclic phosphate (5a, 0.0165 g, 0.04 mmol) was dissolved in water (1 ml) and eluted through a column containing Amberlite IR 120 (H+) resin.

Structure (SMILES) | GI50 Lung-NSC NCI-H460 (NCI-H460) [µg/mL] | GI50 CNS SF268 (SF268) [µg/mL] | GI50 Prostate DU-145 (DU-145) [µg/mL] | GI50 Breast MCF-7 (MCF-7) [µg/mL] | GI50 Pancreas-a BXPC-3 (BXPC-3) [µg/mL] | GI50 Colon KM20L2 (KM20L2) [µg/mL] | also measured
O=C1N[C@H]2[C@H](O)[C@H](O)[C@@H](O)[C@H](O)[C@@H]2c2cc3c(c(O)c21)OCO3 [Compound 1a, (+)-pancratistatin, reference compound] | – | – | – | – | – | – | GI50 (NCI-H460): 0.032 µg/mL (≈ 0.0984 µM); GI50 (SF268): 0.014 µg/mL (≈ 0.043 µM); GI50 (DU-145): 0.015 µg/mL (≈ 0.0461 µM); GI50 (MCF-7): 0.023 µg/mL (≈ 0.0707 µM); GI50 (BXPC-3): 0.02 µg/mL (≈ 0.0615 µM); GI50 (KM20L2): 0.025 µg/mL (≈ 0.0769 µM); activity against microspirochesis [1]: remarkable activity
O=C1N[C@H]2[C@H](O)[C@H](O)[C@@H](O)[C@H](O)[C@@H]2c2cc3c(c(OP(=O)([O-])[O-])c21)OCO3.[Na+].[Na+] [Compound 1b, sodium pancratistatin 7-O-phosphate, reference compound] | 0.19 | 0.079 | 0.026 | 0.20 | 0.20 | 0.17 | –
O=C1N[C@@H]2C(=C[C@H](O)[C@@H](O)[C@H]2O)c2cc3c(c(O)c21)OCO3 [Compound 2a, narciclasine, reference compound] | 0.0084 (≈ 0.0273 µM) | 0.0031 (≈ 0.0101 µM) | 0.0032 (≈ 0.0104 µM) | 0.0032 (≈ 0.0104 µM) | 0.0035 (≈ 0.0114 µM) | 0.0032 (≈ 0.0104 µM) | –
O=C(O[C@H]1[C@H](O)[C@@H](O)[C@@H](O)[C@@H]2NC(=O)c3c(cc4c(c3O)OCO4)[C@H]21)c1ccccc1 [Compound 3a, phenpanstatin] | – | – | – | – | – | – | GI50 (NCI-H460): 0.0001 µg/mL (≈ 0.000233 µM); GI50 (SF268): 0.00055 µg/mL (≈ 0.00128 µM); GI50 (DU-145): 0.00021 µg/mL (≈ 0.000489 µM); GI50 (MCF-7): 0.00031 µg/mL (≈ 0.000722 µM); GI50 (BXPC-3): 0.0019 µg/mL (≈ 0.00442 µM); GI50 (KM20L2): 0.00037 µg/mL (≈ 0.000862 µM)
O=C(O[C@H]1[C@H](O)[C@H]2OP(=O)([O-])O[C@H]2[C@@H]2NC(=O)c3c(cc4c(c3O)OCO4)[C@H]21)c1ccccc1.[Na+] [Compound 3b, Sodium Phenpanstatin 3,4,O-cyclic Phosphate] | – | – | – | – | – | – | GI50 Lung-NSC NCI-H460 (NCI-H460; human cancer cell line NCI-H460): 0.029 µg/mL; GI50 CNS SF268 (SF268; human cancer cell line SF268): 0.17 µg/mL; GI50 Prostate DU-145 (DU-145; human cancer cell line DU-145): 0.13 µg/mL; GI50 Breast MCF-7 (MCF-7; human cancer cell line MCF-7): 0.041 µg/mL; GI50 Pancreas-a BXPC-3 (BXPC-3; human cancer cell line BXPC-3): 0.25 µg/mL; GI50 Colon KM20L2 (KM20L2; human cancer cell line KM20L2): 0.13 µg/mL
O=C1N[C@H]2[C@H](OP(=O)([O-])[O-])[C@H](O)[C@@H](O)[C@H](O)[C@@H]2c2cc3c(c(O)c21)OCO3.[Na+].[Na+] [Compound 4a, Sodium Pancratistatin 4-O-phosphate] | 0.38 | 0.12 | 0.94 | 0.18 | 0.18 | 0.24 | –
O=C1N[C@H]2[C@H](OP(=O)(O)O)[C@H](O)[C@@H](O)[C@H](O)[C@@H]2c2cc3c(c(O)c21)OCO3 [Compound 4b, Pancratistatin 4-O-phosphoric Acid] | 0.42 (≈ 1.04 µM) | 0.35 (≈ 0.864 µM) | 0.20 (≈ 0.494 µM) | 0.43 (≈ 1.06 µM) | 0.36 (≈ 0.888 µM) | 0.33 (≈ 0.814 µM) | stability of the material [2]: unstable and decomposed over several days
O=C1N[C@H]2[C@H](OP(=O)([O-])O)[C@H](O)[C@@H](O)[C@H](O)[C@@H]2c2cc3c(c(O)c21)OCO3.[Li+] [Compound 4c, Lithium Pancratistatin 4-O-phosphate] | 0.35 | 0.28 | 0.20 | 0.39 | 0.30 | 0.25 | –
O=C1N[C@H]2[C@H](OP(=O)([O-])[O-])[C@H](O)[C@@H](O)[C@H](O)[C@@H]2c2cc3c(c(O)c21)OCO3.[K+].[K+] [Compound 4d, Potassium Pancratistatin 4-O-phosphate] | 0.40 | 0.39 | 0.22 | 0.46 | 0.45 | 0.30 | –
O=C1N[C@H]2[C@H](OP(=O)([O-])[O-])[C@H](O)[C@@H](O)[C@H](O)[C@@H]2c2cc3c(c(O)c21)OCO3.[Mg+2] [Compound 4e, Magnesium Pancratistatin 4-O-Phosphate] | 0.42 | 0.36 | 0.22 | 0.44 | 0.40 | 0.36 | –
O=C1N[C@H]2[C@H](OP(=O)([O-])[O-])[C@H](O)[C@@H](O)[C@H](O)[C@@H]2c2cc3c(c(O)c21)OCO3.[Ca+2] [Compound 4f, Calcium Pancratistatin 4-O-Phosphate] | 0.27 | 0.26 | 0.12 | 0.36 | 0.25 | 0.23 | –
O=C1N[C@H]2[C@H](OP(=O)([O-])[O-])[C@H](O)[C@@H](O)[C@H](O)[C@@H]2c2cc3c(c(O)c21)OCO3.[Zn+2] [Compound 4g, Zinc Pancratistatin 4-O-Phosphate] | 0.42 | 0.38 | 0.17 | 0.47 | 0.27 | 0.30 | –
C1CNCCN1.O=C1N[C@H]2[C@H](OP(=O)(O)O)[C@H](O)[C@@H](O)[C@H](O)[C@@H]2c2cc3c(c(O)c21)OCO3 [Compound 4h, Piperazinium Pancratistatin 4-O-Phosphate] | 0.35 | 0.27 | 0.21 | 0.38 | 0.31 | 0.24 | –
C1COCCN1.O=C1N[C@H]2[C@H](OP(=O)(O)O)[C@H](O)[C@@H](O)[C@H](O)[C@@H]2c2cc3c(c(O)c21)OCO3 [Compound 4i, Morpholinium Pancratistatin 4-O-Phosphate] | 0.46 | 0.38 | 0.18 | 0.40 | 0.29 | 0.37 | –
O=C1N[C@H]2[C@H](OP(=O)(O)O)[C@H](O)[C@@H](O)[C@H](O)[C@@H]2c2cc3c(c(O)c21)OCO3.c1c[nH]cn1 [Compound 4j, Imidazolium Pancratistatin 4-O-Phosphate] | 0.25 | 0.21 | 0.13 | 0.33 | 0.25 | 0.13 | –
C=C[C@H]1CN2CC[C@H]1C[C@H]2[C@H](O)c1ccnc2ccc(OC)cc12.O=C1N[C@H]2[C@H](OP(=O)(O)O)[C@H](O)[C@@H](O)[C@H](O)[C@@H]2c2cc3c(c(O)c21)OCO3 [Compound 4k, Quinium Pancratistatin 4-O-Phosphate] | 0.31 | 0.28 | 0.15 | 0.35 | 0.23 | 0.22 | –
C=C[C@H]1CN2CC[C@H]1C[C@@H]2[C@@H](O)c1ccnc2ccc(OC)cc12.O=C1N[C@H]2[C@H](OP(=O)(O)O)[C@H](O)[C@@H](O)[C@H](O)[C@@H]2c2cc3c(c(O)c21)OCO3 [Compound 4l, Quinidium Pancratistatin 4-O-Phosphate] | 0.36 | 0.27 | 0.20 | 0.38 | 0.34 | 0.23 | –
O=C1N[C@H]2[C@@H]3OP(=O)([O-])O[C@@H]3[C@@H](O)[C@H](O)[C@@H]2c2cc3c(c(O)c21)OCO3.[Na+] [Compound 5a, Sodium Pancratistatin 3,4-cyclic Phosphate] | 3.8 | 2.9 | 2.3 | 2.9 | 3.3 | 3.7 | –
